Counter-ions that a name gives are not always drawn. A value given as a limit tells only on which side of the number the result lay.

The target in the test is T1, PDE7 (type VII phosphodiesterase) (Homo sapiens, UniProt Q13946).
T1 construct: endogenous in cells; host or cells: MOLT-4 (ATCC CRL-1582), soluble fraction, HiTrapQ anion-exchange fraction
The experiment in a line: PDE7 inhibiting activity (3H-cAMP hydrolysis, active fraction from MOLT-4 cells). It counts as biochemical. The note with it: PDE7 fraction from MOLT-4 cells, 0.064 μM cAMP, 10 μM rolipram present, 2 hours at 25° C.; read-out: IC50 values for phosphodiesterase inhibiting activities (PDE7). Here is the method: To evaluate the compounds of the present invention for the ability to suppress PDE7 (type VII phosphodiesterase), the method of Biochemical Pharmacol. 48(6), 1219-1223 (1994) was partially modified to perform the following assay:
1) PDE7 (type VII phosphodiesterase) active fraction was obtained. That is, human acute lymphoblastoid lymphoma T cell strain MOLT-4 (purchasable from ATCC under ATCC No. CRL-1582) was cultured in RPMI1640 medium containing 10% fetal bovine serum to obtain 5×10^8 MOLT4 cells. The cells were harvested by centrifugation, and suspended in 10 ml of buffer A (25 mM tris-HCl, 5 mM 2-mercaptoethanol, 2 mM benzamidine, 2 mM EDTA, 0.1 mM 4-(2-aminoethyl)benzenesulfonyl hydrochloride, pH 7=7.5). The cells were homogenized in a Polytoron homogenizer, and centrifuged (4° C., 25,000 G, 10 min). The supernatant was further ultracentrifuged (4° C., 100,000 G, 60 min), and the resulting supernatant was filtered through a 0.2 μm filter to obtain a soluble fraction.
2) HiTrapQ column (5 ml×2) equilibrated with buffer A was charged with the resulting soluble fraction. Phosphodiesterase was eluted using 300 ml of buffer A containing a linear gradient solution of 0 to 0.8M sodium chloride to collect sixty 5 ml fractions. Each fraction was tested for cAMP metabolizing phosphodiesterase activity.
3) The test compounds at desired concentrations were each reacted for 2 hours at 25° C. in a reactant mixture containing 20 mM tris-HCl (pH 7.5), 1 mM MgCl2, 100 μM EDTA, 330 μg/ml bovine serum albumin, 4 μg/ml 5′-nucleotidase, 0.1 μCi^3H-cAMP (0.064 μM cAMP), 10 μM rolipram, and the type VII phosphodiesterase stored solution. QAE-Sephadex suspended in 10 mM HEPES-Na (pH 7.0) was added to the reaction mixture, and the mixture was allowed to stand for 5 minutes. Then, the supernatant was recovered, and QAE-Sephadex was further added, followed by allowing the mixture to stand for 5 minutes. Then, the resulting supernatant was measure for radioactivity.
4) IC50, as the concentration of the test compound that inhibited 50% of the metabolic activity of PDE7, was calculated for each of the compounds.

T1 sequence (Q13946 whole entry): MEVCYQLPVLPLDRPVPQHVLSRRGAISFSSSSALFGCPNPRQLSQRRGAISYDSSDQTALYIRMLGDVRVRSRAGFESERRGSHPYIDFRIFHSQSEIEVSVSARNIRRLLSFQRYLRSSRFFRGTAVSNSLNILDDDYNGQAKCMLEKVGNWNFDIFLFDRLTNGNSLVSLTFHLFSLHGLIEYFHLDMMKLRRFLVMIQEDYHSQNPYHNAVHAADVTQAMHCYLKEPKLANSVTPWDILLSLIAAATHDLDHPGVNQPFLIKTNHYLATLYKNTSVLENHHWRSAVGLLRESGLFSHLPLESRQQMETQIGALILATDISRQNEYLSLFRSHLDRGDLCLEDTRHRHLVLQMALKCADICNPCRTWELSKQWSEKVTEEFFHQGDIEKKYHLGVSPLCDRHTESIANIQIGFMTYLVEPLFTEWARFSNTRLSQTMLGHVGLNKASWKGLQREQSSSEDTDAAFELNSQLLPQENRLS

Turning to `COc1ccc(F)cc1-c1nc2c(c(C3CCCCC3)nn2C)c(=O)[nH]1` [Example 74, 3-Cyclohexyl-6-(5-fluoro-2-methoxyphenyl)-1-methyl-1,5-dihydro-4H-pyrazolo[3,4-d]pyrimidin-4-one], the half-inhibitory concentration (IC50) is at most 1000 nM.
Then `COc1cc(N2CCC(C(=O)O)CC2)ccc1-c1nc2c(c(C3CCCCC3)nn2C)c(=O)[nH]1` [Example 76], with at most 10 nM; and `COc1cc(N2CCNCC2)ccc1-c1nc2c(c(C3CCCCCC3)nn2C)c(=O)[nH]1` [Example 78, 3-Cycloheptyl-6-[2-methoxy-4-(1-piperazinyl)phenyl]-1-methyl-1,5-dihydro-4H-pyrazolo[3,4-d]pyrimidin-4-one monomethanesulfonate], with at most 10 nM.
Then `COc1cc(N2CCNCC2)c(F)cc1-c1nc2c(c(C3CCCCC3)nn2C)c(=O)[nH]1` [Example 81, monomethanesulfonate], with at most 10 nM; and `COc1cc(N2CCN(C)CC2)c(F)cc1-c1nc2c(c(C3CCCCC3)nn2C)c(=O)[nH]1` [Example 82, 3-Cyclohexyl-6-[5-fluoro-2-methoxy-4-(4-methyl-1-piperazinyl)phenyl]-1-methyl-1,5-dihydro-4H-pyrazolo[3,4-d]pyrimidin-4-one], with at most 10 nM; and `CNCCN(C)c1ccc(-c2nc3c(c(C4CCCCC4)nn3C)c(=O)[nH]2)c(OC)c1` [Example 84, 3-Cyclohexyl-6-(2-methoxy-4-{methyl[2-(methylamino)ethyl]amino}phenyl)-1-methyl-1,5-dihydro-4H-pyrazolo[3,4-d]pyrimidin-4-one monomethanesulfonate], with at most 10 nM.
Then `CCOc1cc(N2CCN(C)CC2)ccc1-c1nc2c(c(C3CCCCC3)nn2C)c(=O)[nH]1` [Example 87, 3-Cyclohexyl-6-[2-ethoxy-4-(4-methyl-1-piperazinyl)phenyl]-1-methyl-1,5-dihydro-4H-pyrazolo[3,4-d]pyrimidin-4-one monomethanesulfonate], with at most 10 nM; and `CCOc1cc(N2CCC(NC)CC2)ccc1-c1nc2c(c(C3CCCCC3)nn2C)c(=O)[nH]1` [Example 90, 3-Cyclohexyl-6-{2-ethoxy-4-[4-(methylamino)-1-piperidinyl]phenyl}-1-methyl-1,5-dihydro-4H-pyrazolo[3,4-d]pyrimidin-4-one monomethanesulfonate], with at most 10 nM.
On to `CNC1CCN(c2ccc(-c3nc4c(C)nn(C5CCCCC5)c4c(=O)[nH]3)c(OC)c2)CC1` [Example 92, 1-Cyclohexyl-5-{2-methoxy-4-[4-(methylamino)-1-piperidinyl]phenyl}-3-methyl-1,6-dihydro-7H-pyrazolo[4,3-d]pyrimidin-7-one], for which the IC50 was at most 10 nM.
Then `CNC1CCN(c2ccc(-c3nc4c(c(C5CCCCCC5)nn4C)c(=O)[nH]3)c(OC)c2)CC1` [Example 95, 3-Cycloheptyl-6-{2-methoxy-4-[4-(methylamino)-1-piperidinyl]phenyl}-1-methyl-1,5-dihydro-4H-pyrazolo[3,4-d]pyrimidin-4-one monomethanesulfonate], with at most 10 nM; and `CCNC1CCN(c2ccc(-c3nc4c(c(C5CCCCC5)nn4C)c(=O)[nH]3)c(OC)c2)CC1` [Example 97, 3-Cyclohexyl-6-{2-methoxy-4-[4-(ethylamino)-1-piperidinyl]phenyl}-1-methyl-1,5-dihydro-4H-pyrazolo[3,4-d]pyrimidin-4-one], with at most 10 nM; and `CCNC1CCN(c2ccc(-c3nc4c(C)nn(C5CCCCC5)c4c(=O)[nH]3)c(OC)c2)CC1` [Example 99, 1-Cyclohexyl-5-{2-methoxy-4-[4-(ethylamino)-1-piperidinyl]phenyl}-3-methyl-1,6-dihydro-7H-pyrazolo[4,3-d]pyrimidin-7-one], with at most 1000 nM.
Then `CNCCN(C)c1ccc(-c2nc3c(C)nn(C4CCCCC4)c3c(=O)[nH]2)c(OC)c1` [Example 103, 1-Cyclohexyl-5-(2-methoxy-4-{methyl[2-(methylamino)ethyl]amino}phenyl)-3-methyl-1,6-dihydro-7H-pyrazolo[4,3-d]pyrimidin-7-one monofumarate], with at most 10 nM; and `COc1cc(N(C)CCO)ccc1-c1nc2c(C)nn(C3CCCCC3)c2c(=O)[nH]1` [Example 107, 1-Cyclohexyl-5-{4-[(2-hydroxyethyl)(methyl)amino]-2-methoxyphenyl}-3-methyl-1,6-dihydro-7H-pyrazolo[4,3-d]pyrimidin-7-one], with at most 10 nM; and `COc1cc(N2CCC(CO)CC2)ccc1-c1nc2c(C)nn(C3CCCCC3)c2c(=O)[nH]1` [Example 109, 1-Cyclohexyl-5-{4-[4-(hydroxymethyl)-1-piperidinyl]-2-methoxyphenyl}-3-methyl-1,6-dihydro-7H-pyrazolo[4,3-d]pyrimidin-7-one], with at most 10 nM.
Then `CNCCCN(C)c1ccc(-c2nc3c(C)nn(C4CCCCC4)c3c(=O)[nH]2)c(OC)c1` [Example 111, 1-Cyclohexyl-5-(2-methoxy-4-{methyl[3-(methylamino)propyl]amino}phenyl)-3-methyl-1,6-dihydro-7H-pyrazolo[4,3-d]pyrimidin-7-one monofumarate], with at most 10 nM; and `COc1cc(N2CCCN(C)CC2)ccc1-c1nc2c(C)nn(C3CCCCC3)c2c(=O)[nH]1` [Example 112, 1-Cyclohexyl-5-[2-methoxy-4-(4-methyl-1,4-diazepan-1-yl)phenyl]-3-methyl-1,6-dihydro-7H-pyrazolo[4,3-d]pyrimidin-7-one], with at most 1000 nM.
As for `CCN(CCO)c1ccc(-c2nc3c(C)nn(C4CCCCC4)c3c(=O)[nH]2)c(OC)c1` [Example 115, 1-Cyclohexyl-5-{4-[(2-hydroxyethyl)(ethyl)amino]-2-methoxyphenyl}-3-methyl-1,6-dihydro-7H-pyrazolo[4,3-d]pyrimidin-7-one monohydrochloride], the IC50 is at most 1000 nM.
The value for `CCOc1cc(NCCOC)ccc1-c1nc2c(c(C3CCCCC3)nn2C)c(=O)[nH]1` [Example 117, 3-Cyclohexyl-6-{2-ethoxy-4-[(2-methoxyethyl)amino]phenyl}-1-methyl-1,5-dihydro-4H-pyrazolo[3,4-d]pyrimidin-4-one] was at most 10 nM; that for `COc1cc(N2CCC(N(C)C=O)CC2)ccc1-c1nc2c(C)nn(C3CCCCC3)c2c(=O)[nH]1` [Example 118, 1-[4-(1-Cyclohexyl-3-methyl-7-oxo-6,7-dihydro-1H-pyrazolo[4,3-d]pyrimidin-5-yl)-3-methoxyphenyl]-4-piperidiny(methyl)formamide] was at most 1000 nM.
The value for `COc1cc(N2CCC(N(C)C(C)=O)CC2)ccc1-c1nc2c(C)nn(C3CCCCC3)c2c(=O)[nH]1` [Example 119, N-{1-[4-(1-cyclohexyl-3-methyl-7-oxo-6,7-dihydro-1H-pyrazolo[4,3-d]pyrimidin-5-yl)-3-methoxyphenyl]-4-piperidiny}-N-methylacetamide] was at most 1000 nM.
Then `CCOc1cc(N2CCC(NC)CC2)ccc1-c1nc2c(C)nn(C3CCCCC3)c2c(=O)[nH]1` [Example 121, 1-Cyclohexyl-5-{2-ethoxy-4-[4-(methylamino)-1-piperidinyl]phenyl}-3-methyl-1,6-dihydro-7H-pyrazolo[4,3-d]pyrimidin-7-one], with at most 10 nM.
